Measurements reported in patent US7812022B2 (GlaxoSmithKline LLC, priority 2004, dated 2010).

Tests used:
[1] = target: T1, ErbB2 or EGFR; test: ErbB family substrate phosphorylation enzyme assay (HTRF), Method A or Method B; type: biochemical
T1 construct: enzymes purified from a baculovirus expression system; Reagent production was conducted essentially as described in Brignola, P. S., et al, (2002) J. Biol. Chem. 277(2): 1576-1585
Summary of the method: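 Baculovirus-expressed EGFR or ErbB2 (0.8 or 10 nM in enzyme mix) phosphorylates biotinylated Peptide C with 20 µM ATP and 0.8 µM peptide (substrate-mix levels), MnCl2, pH 7.5. Reaction ran 90 min at 20 °C with EDTA stop and HTRF anti-phosphotyrosine read. Method A: enzyme added last; Method B: 1 h enzyme–compound preincubation.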

[2] = test system: BT474 and HN5 tumor cell lines; test: Methylene blue growth inhibition assay (cellular Method A); type: cell-based, Human; conditions: Homo sapiens, BT-474, 72 h, 3 days, read-out: Activity (Method): growth inhibition IC50 class
Summary of the method: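 Growth inhibition measured by methylene blue staining of biomass (OD 620) after 3 days' compound exposure at 37° C, final DMSO 0.3%. Cell lines: BT474 (10,000/well), HN5 (3,000/well) and Colo205, all in DMEM with 10% FBS; IC50 fitted by nonlinear regression against vehicle-treated wells.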

[3] = test system: Colo205 tumor cell lines; test: Methylene blue growth inhibition assay (cellular Method A), Colo205; type: cell-based, Human; conditions: Homo sapiens, COLO 205, 72 h, 3 days, read-out: Activity (Method): growth inhibition IC50 class
Procedure: Human breast (BT474) and head and neck (HN5) were cultured in low glucose DMEM (Life Technologies 12320-032) containing 10% fetal bovine serum (FBS). Human colon tumor cells (Colo205) were cultured in DMEM (Invitrogen, 10564) containing 10% FBS. The SV40 transformed human mammary epithelial cell line HB4a was transfected with either human H-ras cDNA (HB4a r4.2) or the human c-ErbB2 cDNA (HB4a c5.2). The HB4a clones were cultured in RPMI containing 10% FBS, insulin (5 g/mL), hydrocortisone (5 g/mL), supplemented with the selection agent hygromycin B (50 g/mL). All lines were grown in a humidified incubator at 37° C. in 95% air, 5% CO2. Cells were harvested using trypsin/EDTA, counted using a haemocytometer, and plated in 100 microliters of the appropriate media, at the following densities, in a 96-well tissue culture plate (Falcon 3075): BT474 10,000 cells/well, HN5 3,000 cells/well. The next day, compounds were diluted in DMEM containing […] gentamicin, at twice the final required concentration, from 10 mM stock solutions in DMSO. 100 microliters/well of these dilutions were added to the 100 microliters of media currently on the cell plates. Medium containing 0.6% DMSO was added to control wells. Compounds diluted in DMEM were added to all cell lines. The final concentration of DMSO in all wells was 0.3%. Cells were returned to the incubator (37° C., 10% CO2) for 3 days. Medium was then removed by aspiration. Cell biomass was estimated by staining cells with 90 microliters per well methylene blue (Sigma M9140, 0.5% in 1:1 ethanol:water), and incubation at rt for at least 30 minutes. Stain was removed, and the plates rinsed by immersion in deionized water and air-dried. To release stain from the cells 100 microliters of solubilization solution was added (1% N-lauroyl sarcosine, Sodium salt, Sigma L5125, in PBS), and plates were shaken gently for about 30 minutes. Optical density at 620 nm was measured on a microplate reader. Percent inhibition of cell growth was calculated relative to vehicle treated control wells. Concentration of compound that inhibits 50% of control cell growth (IC50) was interpolated using nonlinear regression (Levenberg-Marquardt) and the equation, y=Vmax*(1−(x/(K+x)))+Y2, where “K” was equal to the IC50. Method B: Celltiter Glo® Growth Inhibition Assays

[4] = Method A: substrate mix added first, reaction started with enzyme mix
[5] = Method B: enzyme mix pre-incubated with compound 1 hour at 20° C., started with substrate mix

Row | IC50 [2] [nM] | IC50 [3] [nM] | Structure (SMILES) | Activity (Method): pIC50 class against ErbB2 or EGFR [1, 4] | Activity (Method): pIC50 class against ErbB2 or EGFR [1, 5]
1 | < 100 | 100 to 1000 | O=C(Nc1cccc(-c2nn3ccccc3c2-c2ccnc(Nc3cccc(-c4cnco4)c3)n2)c1)c1cc(F)ccc1F [Example 44, 2,5-Difluoro-N-{3-[3-(2-{[3-(1,3-oxazol-5-yl)phenyl]amino}-4-pyrimidinyl)pyrazolo[1,5-a]pyridin-2-yl]phenyl}benzamide] | +++ (A) (at least one pIC50 measurement of greater than 7 against either ErbB2 or EGFR) | –
2 | < 100 | 100 to 1000 | O=C(Nc1cccc(-c2nn3ccccc3c2-c2ccnc(Nc3ccc(N4CCOCC4)cc3)n2)c1)c1cc(F)ccc1F [Example 45, 2,5-Difluoro-N-{3-[3-(2-{[4-(4-morpholinyl)phenyl]amino}-4-pyrimidinyl)pyrazolo[1,5-a]pyridin-2-yl]phenyl}benzamide] | +++ (A) (at least one pIC50 measurement of greater than 7 against either ErbB2 or EGFR) | –
3 | > 1000 | > 1000 | COc1ccc(Nc2nccc(-c3c(-c4cccc(NC(=O)c5cc(F)ccc5F)c4)nn4ccccc34)n2)cc1F [Example 46, 2,5-Difluoro-N-{3-[3-(2-{[3-fluoro-4-(methyloxy)phenyl]amino}-4-pyrimidinyl)pyrazolo[1,5-a]pyridin-2-yl]phenyl}benzamide] | – | + (B) (no pIC50 measurement greater than 6 against either ErbB2 or EGFR)
4 | 100 to 1000 | > 1000 | CC(=O)Nc1cccc(Nc2nccc(-c3c(-c4cccc(NC(=O)c5cc(F)ccc5F)c4)nn4ccccc34)n2)c1 [Example 47, N-{3-[3-(2-{[3-(acetylamino)phenyl]amino}-4-pyrimidinyl)pyrazolo[1,5-a]pyridin-2-yl]phenyl}-2,5-difluorobenzamide] | +++ (A) (at least one pIC50 measurement of greater than 7 against either ErbB2 or EGFR) | –
5 | 100 to 1000 | > 1000 | O=C(Nc1cccc(-c2nn3ccccc3c2-c2ccnc(Nc3ccc(N4CCCC4=O)cc3)n2)c1)c1cc(F)ccc1F [Example 50, 2,5-Difluoro-N-{3-[3-(2-{[4-(2-oxo-1-pyrrolidinyl)phenyl]amino}-4-pyrimidinyl)pyrazolo[1,5-a]pyridin-2-yl]phenyl}benzamide] | +++ (A) (at least one pIC50 measurement of greater than 7 against either ErbB2 or EGFR) | –
6 | < 100 | 100 to 1000 | O=C(Nc1cccc(-c2nn3ccccc3c2-c2ccnc(Nc3cccc(CCN4CCOCC4)c3)n2)c1)c1c(F)cccc1F [Example 54, 2,6-Difluoro-N-(3-{3-[2-({3-[2-(4-morpholinyl)ethyl]-phenyl}amino)-4-pyrimidinyl]pyrazolo[1,5-a]pyridin-2-yl}phenyl)benzamide] | +++ (A) (at least one pIC50 measurement of greater than 7 against either ErbB2 or EGFR) | –
7 | < 100 | 100 to 1000 | O=C(Nc1cccc(-c2nn3ccccc3c2-c2ccnc(Nc3cccc(CCCN4CCOCC4)c3)n2)c1)c1c(F)cccc1F [Example 55, 2,6-Difluoro-N-(3-{3-[2-({3-[3-(4-morpholinyl)propyl]-phenyl}amino)-4-pyrimidinyl]pyrazolo[1,5-a]pyridin-2-yl}phenyl)benzamide] | – | +++ (B) (at least one pIC50 measurement of greater than 7 against either ErbB2 or EGFR)
8 | < 100 | 100 to 1000 | O=C(Nc1cccc(-c2nn3ccccc3c2-c2ccnc(Nc3ccc(CCN4CCOCC4)cc3)n2)c1)c1c(F)cccc1F [Example 56, 2,6-Difluoro-N-(3-{3-[2-({4-[2-(4-morpholinyl)ethyl]-phenyl}amino)-4-pyrimidinyl]pyrazolo[1,5-a]pyridin-2-yl}phenyl)benzamide] | – | +++ (B) (at least one pIC50 measurement of greater than 7 against either ErbB2 or EGFR)
9 | < 100 | 100 to 1000 | CN1CCN(Cc2cccc(Nc3nccc(-c4c(-c5cccc(NC(=O)c6c(F)cccc6F)c5)nn5ccccc45)n3)c2)CC1 [Example 57, 2,6-Difluoro-N-(3-{3-[2-({3-[(4-methyl-1-piperazinyl)-methyl]phenyl}amino)-4-pyrimidinyl]pyrazolo[1,5-a]pyridin-2-yl}phenyl)benzamide] | – | +++ (B) (at least one pIC50 measurement of greater than 7 against either ErbB2 or EGFR)
10 | < 100 | > 1000 | O=C(Nc1cccc(-c2nn3ccccc3c2-c2ccnc(Nc3cccc(S(=O)(=O)CCO)c3)n2)c1)c1c(F)cccc1F [Example 58, 2,6-Difluoro-N-(3-{3-[2-({3-[(2-hydroxyethyl)sulfonyl]-phenyl}amino)-4-pyrimidinyl]pyrazolo[1,5-a]pyridin-2-yl}phenyl)benzamide] | – | +++ (B) (at least one pIC50 measurement of greater than 7 against either ErbB2 or EGFR)
11 | < 100 | > 1000 | O=C(Nc1cccc(-c2nn3ccccc3c2-c2ccnc(Nc3cccc(O)c3)n2)c1)c1c(F)cccc1F [Example 59, 2,6-Difluoro-N-[3-(3-{2-[(3-hydroxyphenyl)amino]-4-pyrimidinyl}pyrazolo[1,5-a]pyridin-2-yl)phenyl]benzamide] | – | +++ (B) (at least one pIC50 measurement of greater than 7 against either ErbB2 or EGFR)
12 | < 100 | 100 to 1000 | O=C(Nc1cccc(-c2nn3ccccc3c2-c2ccnc(Nc3cccc(OCCN4CCOCC4)c3)n2)c1)c1c(F)cccc1F [Example 60, 2,6-Difluoro-N-[3-(3-{2-[(3-{[2-(4-morpholinyl)ethyl]-oxy}phenyl)amino]-4-pyrimidinyl}pyrazolo[1,5-a]pyridin-2-yl)phenyl]benzamide] | – | +++ (B) (at least one pIC50 measurement of greater than 7 against either ErbB2 or EGFR)
13 | < 100 | 100 to 1000 | CN(C)CCOc1cccc(Nc2nccc(-c3c(-c4cccc(NC(=O)c5c(F)cccc5F)c4)nn4ccccc34)n2)c1 [Example 61, N-[3-(3-{2-[(3-{[2-(Dimethylamino)ethyl]oxy}-phenyl)amino]-4-pyrimidinyl}pyrazolo[1,5-a]pyridin-2-yl)phenyl]-2,6-difluorobenzamide] | – | +++ (B) (at least one pIC50 measurement of greater than 7 against either ErbB2 or EGFR)
14 | < 100 | > 1000 | O=C(Nc1cccc(-c2nn3ccccc3c2-c2ccnc(Nc3ccc4c(c3)CNCC4)n2)c1)c1ccccc1 [Example 62, N-(3-{3-[2-(1,2,3,4-Tetrahydro-7-isoquinolinylamino)-4-pyrimidinyl]pyrazolo[1,5-a]pyridin-2-yl}phenyl)benzamide] | – | +++ (B) (at least one pIC50 measurement of greater than 7 against either ErbB2 or EGFR)
15 | 100 to 1000 | > 1000 | Cc1ccc(F)cc1C(=O)Nc1cccc(-c2nn3ccccc3c2-c2ccnc(Nc3cccc(F)c3)n2)c1 [Example 83, 5-Fluoro-N-[3-(3-{2-[(3-fluorophenyl)amino]-4-pyrimidinyl}pyrazolo[1,5-a]pyridin-2-yl)phenyl]-2-methylbenzamide] | ++ (A) (at least one pIC50 measurement greater than 6 against either ErbB2 or EGFR but no measurement greater than pIC50 of 7) | –
16 | > 1000 | > 1000 | Cn1cncc1C(=O)Nc1cccc(-c2nn3ccccc3c2-c2ccnc(Nc3cccc(F)c3)n2)c1 [Example 84, N-[3-(3-{2-[(3-fluorophenyl)amino]-4-pyrimidinyl}-pyrazolo[1,5-a]pyridin-2-yl)phenyl]-1-methyl-1H-imidazole-5-carboxamide] | – | +++ (B) (at least one pIC50 measurement of greater than 7 against either ErbB2 or EGFR)
